In article PMC7079562 (Bioorganic & Medicinal Chemistry, 2016):

molecular target: SARS-CoV 3CL^pro (Severe acute respiratory syndrome coronavirus, UniProt P0C6X7); format: biochemical

Structure (SMILES) | Inhibitory activity against SARS 3CLpro (in words)
CC1=NN(c2ccccc2)C(=O)/C1=C\c1ccc(-c2cc(Cl)ccc2C(=O)O)o1 [Compound 3e, 4-Chloro-2-(5-((3-methyl-5-oxo-1-phenyl-1,5-dihydro-4H-pyrazol-4-ylidene)methyl)furan-2-yl)benzoic acid] | unable to inhibit
O=C1/C(=C\c2ccc(-c3ccccc3)o2)C(c2ccccc2)=NN1c1ccccc1 [Compound 3j, 2,5-Diphenyl-4-((5-phenylfuran-2-yl)methylene)-2,4-dihydro-3H-pyrazol-3-one] | inactive
CC1=NN(c2cccc(C(=O)O)c2)C(=O)/C1=C\c1ccc(-c2ccccc2)o1 [Compound 3l, 3-(3-Methyl-5-oxo-4-((5-phenylfuran-2-yl)methylene)-4,5-dihydro-1H-pyrazol-1-yl)benzoic acid] | unable to inhibit
